This is an account of results in US20170006866A1, “PHYTOSANITARY COMPOSITION” (INSTITUT NATIONAL DE LA RECHERCHE AGRONOMIQUE-INRA, priority 2014, published 2017).

What all share (type): in vivo
Data set [1] has as its system Myzus persicae. Kind of data set: Toxicity on larval growth (cumulative larval mortality on supplemented Ap3 medium), green peach aphid. Particulars: larval growth D1-D7. Here is the method: (§1) b) Measurement of the toxicity of chicoric acid or caftaric acid on larval growth of the green peach aphid (Myzus persicae) and the pea aphid (Acyrthosiphon pisum)
(§2) The objective is to quantify the toxic effect of chicoric acid or caftaric acid on the aphid for the period of larval growth thereof, i.e. 8 to 10 days for Myzus persicae and Acyrthosiphon pisum at 19° C. The molecule is added at different concentrations to the Ap3 control nutrient medium. The dose “0” corresponds to Ap3 medium alone.
(§3) The medium (75 μl) is poured between two UV-sterilized Parafilm® stretched onto a cylindrical PVC support (h=1.5 cm, d=2 cm), under sterile conditions.
(§4) On the Day D0, 20 neonate larvae are deposited inside the cylinder, which is then turned over and applied to a square of Parafilm©. The dishes are placed in filtered light (16 hours day/8 hours night) and in a chamber at 19° C. The fixation percentage is recorded after 1 hour as a short-term phagostimulation indicator and to check that no anomaly occurred during aphid deposition. The larval mortality is recorded daily at the end of the day. […] On the day of the imaginal moult thereof, the aphids having reached the adult aptera stage are deposited successively on a precision balance (d=0.01 mg) and the cumulative weights are recorded for each concentration of each of the two molecules tested. The individual weights are calculated subsequently. […]

Data set [2] concerns Myzus persicae. The experiment in a line: Analysis of repellent effect: choice test between control Ap3 medium and test medium, phagostimulation index. The following applies: Myzus persicae larvae, doses 0 to 1 mM in Ap3 medium. From the text: a) Analysis of repellent effect: the method used is that developed by Yvan Rahbe (Rahbé & Febvay (1993) Entomologia Experimentalis et Applicata 67: 149-160; Chen (1996) Thesis submitted to Institut National des Sciences Appliquées, Lyon, France: 158 p) within the scope of research on the chemical determinants of the resistance of plants to various species of aphids (Aphis gossypii, Acyrthosiphon pisum), and adapted to the green aphid Myzus persicae.
The objective is to evaluate the attractive or repellent nature of a candidate molecule, at different concentrations, either with respect to control base medium (dose “0”), or with respect to another substance. […]
The medium (35 μl) is poured between two Parafilm® membranes stretched onto an Eppendorf® cone. […] The following morning, the number of aphids fixed on each medium is then recorded. […] A phagostimulation index, representing the degree of appetence of the test medium for the aphid, is calculated as follows: […]

Another data set has as its system Acyrthosiphon pisum. Kind of data set: Toxicity on larval growth (cumulative larval mortality on supplemented Ap3 medium), pea aphid. On the procedure: as §1, §2, §3, §4

Broadly, the mortality is the percentage killed. Regarding `O=C(/C=C/c1ccc(O)c(O)c1)O[C@@H](C(=O)O)[C@@H](OC(=O)/C=C/c1ccc(O)c(O)c1)C(=O)O` [chicoric acid, dicaffeyl tartaric acid], the results for the larval mortality in the data set on Myzus persicae [1] (from 0.125 mM in Ap3 medium) and in the data set with Myzus persicae [1] (from 0.25 mM in Ap3 medium) were roughly 80% and 100%, respectively. The “dose from which a highly significant repellent effect is displayed” value in the data set on Myzus persicae [2] (15 hours at 19° C.) was no less than 62.5 µM. Moreover, the “repellent effect (result in words)” value in the data set on Myzus persicae [2] is “significant repellent effect”. Moreover, in the data set on Acyrthosiphon pisum (Acyrthosiphon pisum larval growth), the “dose from which a very significant toxic effect (p<0.001) is observed” value was no less than 0.5 mM. Moreover, the mortality at 500 µM in the data set on Acyrthosiphon pisum (Acyrthosiphon pisum, read-out: larval mortality) was greater than 80%.
